Laboratory results: publication PMC2930754 (Chemical communications (Cambridge, England), 2010)

Tests used:
[1] = tested on: A2780 ovarian cancer cells; assay: Antiproliferative activity to A2780 ovarian cancer cells; format: cell-based; settings: Homo sapiens, A2780, read-out: IC50 A2780 (antiproliferative activity)
tubulin = assay: Promotion of in vitro tubulin polymerization; format: biochemical; settings: in vitro tubulin assembly

Row | SMILES | IC50 [1] [nM] | ED50, Tb polym. (promotion of tubulin polymerization) (tubulin) [µM]
1 | C/C(=C\c1csc(C)n1)[C@@H]1C[C@@H]2O[C@]2(C)CCC[C@H](C)[C@H](O)[C@@H](C)C(=O)C(C)(C)[C@@H](O)CC(=O)O1 [Compound 2, epothilone B] | 1.9 ± 0.2 | 
2 | C/C1=C/C[C@@H](/C(C)=C/c2csc(C)n2)OC(=O)C[C@H](O)C(C)(C)C(=O)[C@H](C)[C@@H](O)[C@@H](C)CCC1 [Compound 4, epothilone D] | 6.8 ± 1.7 | 0.44 ± 0.02
